# Measured values published in US11178872B2 (dated 2021).
row,melting point,SMILES
1,175 to 177 °C,N#Cc1cc(C(=O)N2CCC(O)(c3ccc(Cl)cc3)CC2)c(C(F)F)nc1-c1ccc(Cl)cn1
2,200 °C,N#Cc1cc(C(=O)N2CCC(O)(c3ccc(Cl)cc3)CC2)c(C(F)F)nc1-c1ccc(C(F)(F)F)cc1
3,177 to 180 °C,N#Cc1cc(C(=O)N2CCC(O)(c3ccc(Cl)cc3)CC2)c(C(F)F)nc1-c1ccc(C(F)(F)F)nc1
4,191 to 195 °C,N#Cc1cc(C(=O)N2CCC(O)(c3ccccc3Cl)C2)c(C(F)F)nc1-c1ccc(C(F)(F)F)cc1 (centres unmarked)
5,150 to 155 °C,N#Cc1cc(C(=O)N2CCC(O)(c3ccc(Cl)cc3)CC2)c(C(F)F)nc1-c1ccnc(F)c1
6,220 °C,Cn1cc(-c2nc(C(F)F)c(C(=O)N3CCC(O)(c4ccc(Cl)cc4)CC3)cc2C#N)cn1

# More lines, now with the values behind:
row,SMILES,melting point
1,CCCn1cc(-c2nc(C(F)F)c(C(=O)N3CCC(O)(c4ccc(Cl)cc4)CC3)cc2C#N)cn1,193 to 195 °C
2,N#Cc1cc(C(=O)N2CCC(c3noc(O)n3)C2)c(C(F)F)nc1-c1ccc(C(F)(F)F)cc1 (centres unmarked),181 to 184 °C
3,Cc1nc(C2CCN(C(=O)c3cc(C#N)c(-c4ccc(C(F)(F)F)cn4)nc3C)CC2)no1,60 to 62 °C
4,CO[C@@]1(c2ccc(C)cc2)[C@@H]2CC[C@H]1CN(C(=O)c1cc(C#N)c(-c3ccc(C(F)(F)F)cc3)nc1C(F)F)C2,228 to 230 °C
5,Cc1nc(C2CCN(C(=O)c3cc(C#N)c(-c4ccc(Cl)s4)nc3C)CC2)no1,69 to 71 °C
